Reference: PubChem BioAssay AID1996
≈ marks a conversion by molar mass, not a printed value.

Settings: buffer; pH 7.4; 200.0 µM

First: Cc1cn(C2CC(OC(=O)C(C)C)C(CO)O2)c(=O)[nH]c1=O (centres undefined)
Second: CC(C)c1ccc(C(=O)OCC(=O)NC2CCCC2)cc1
The solubility kinetic of the first is higher: greater than 46.8 µg/mL for the first, 11.8 µg/mL (≈ 40.8 µM) for the second.

Going from `CC(=O)Nc1ccc(C(=O)Nc2ccc3c(c2)OCCO3)cc1` to `Cc1ccc(C(=O)N/C(=C\c2ccc(C)o2)C(=O)O)cc1`, the solubility kinetic rises from 22.8 µg/mL (≈ 73 µM) to greater than 42.8 µg/mL.

Compared with `O=C(Nc1ccc(Cl)cc1F)c1ccc2c(c1)C(=O)N(Cc1ccncc1)C2=O`, `O=C1c2ccccc2C(=O)N1CC(O)COc1ccc(Cl)cc1` (centres undefined) is 1.8-fold lower in solubility kinetic: 10.8 µg/mL (≈ 26.4 µM) for the first, 6.1 µg/mL (≈ 18.4 µM) for the second.

Going from `Nc1nc(NCc2ccco2)nc(Nc2cccc(F)c2)c1[N+](=O)[O-]` to `Cc1ccc(S(=O)(=O)c2cc3ccccc3nc2N)cc1`, the solubility kinetic rises from 0.3 µg/mL (≈ 0.871 µM) to 0.5 µg/mL (≈ 1.68 µM) (1.7-fold).

Going from `CC1(C)CC(CCN)(Cc2ccccc2Cl)CCO1` (centres undefined) to `O=C(CNC(=O)c1ccco1)OCc1ccccc1F`, the solubility kinetic rises from 37.7 µg/mL (≈ 134 µM) to greater than 41.6 µg/mL.

`O=C(COC(=O)c1ccc(S(=O)(=O)NCc2ccco2)cc1)NCc1ccccc1` and `COc1ccc(C(=O)COC(=O)[C@@H](NS(=O)(=O)c2ccccc2)C(C)C)cc1` are within 1.5-fold of each other in solubility kinetic: 7.4 µg/mL (≈ 17.3 µM) for the first, 7.8 µg/mL (≈ 19.2 µM) for the second.

Compared with `Cc1nc(-c2cc(-c3ccc(Cl)cc3)no2)cs1`, `Cc1ccc(C)n1-c1nccc(-c2ccco2)n1` is higher in solubility kinetic: less than 0.3 µg/mL for the first, 23.5 µg/mL (≈ 98.2 µM) for the second.

Going from `CC1CC(C)CN(S(=O)(=O)c2ccc(C(=O)N(C)Cc3ccccc3)cc2)C1` (centres undefined) to `Cn1c(C(=O)O)ccc1S(=O)(=O)N(Cc1ccccc1)Cc1ccccc1`, the solubility kinetic rises from 13.7 µg/mL (≈ 34.2 µM) to greater than 57.7 µg/mL.

`C/C=C/n1ccnc1CC(O)(c1ccccc1)c1ccc(C)cc1` (centres undefined) and `CCn1cc(C(c2ccccc2)C(C(C)=O)[N+](=O)[O-])c2ccccc21` (centres undefined) are within 1.5-fold of each other in solubility kinetic: 3.3 µg/mL (≈ 10.4 µM) for the first, 4.8 µg/mL (≈ 14.3 µM) for the second.

`CC(C)(Oc1ccc(Cl)cc1)C(=O)N1CCN(C(=O)c2ccco2)CC1` and `CN1CCN(C(=O)c2cc3cc(Cl)ccc3[nH]2)CC1.Cl` cannot be ordered by solubility kinetic: greater than 56.5 µg/mL for the first, greater than 47.1 µg/mL for the second.

First: CSc1nsc(NC(=O)OCc2ccc(Cl)cc2)n1
Second: CCc1nc2cccnc2n1-c1ccc(CC(=O)O)cc1
The solubility kinetic of the first is lower: 8.4 µg/mL (≈ 26.6 µM) for the first, greater than 42.2 µg/mL for the second.

Compared with `O=C(CN1C(=O)C(=O)N(Cc2ccco2)C1=O)NC1CCCCC1`, `O=S(=O)(NC(=S)NC1CCCCC1)c1ccc(Cl)cc1` is higher in solubility kinetic: 45.8 µg/mL (≈ 137 µM) for the first, greater than 49.9 µg/mL for the second.

Going from `c1ccc(CCCN2CCN(c3ccccc3)CC2)cc1` to `OCCOCCN1CCN(C2=Nc3ccccc3Sc3ccccc32)CC1`, the solubility kinetic rises from 24.3 µg/mL (≈ 86.7 µM) to 49.4 µg/mL (≈ 129 µM) (2-fold).

`CC(c1ccccc1)N1CCN(C(=O)CCl)CC1.Cl` (centres undefined) and `O=C(NC1CCN(C(=O)c2cccs2)CC1)c1ccccc1` are within 1.5-fold of each other in solubility kinetic: 43.3 µg/mL for the first, 46.1 µg/mL (≈ 147 µM) for the second.

Going from `CCn1cc(C(=O)NCc2ccc(OC)cc2)c(=O)c2ccc(C)nc21` to `CCc1nc2cccnc2n1-c1ccc(CC(=O)NC(C)CC)cc1` (centres undefined), the solubility kinetic rises from 0.4 µg/mL (≈ 1.14 µM) to greater than 50.5 µg/mL.

Going from `COc1ccc(NC(=O)COC(=O)C23CC4CC(CC(NC(C)=O)(C4)C2)C3)cc1S(=O)(=O)N1CCOCC1` to `C/C(N)=C(/C#N)C(=O)COC(=O)C1CCN(S(=O)(=O)c2cccs2)CC1`, the solubility kinetic falls from greater than 82.4 µg/mL to 10.9 µg/mL (≈ 27.4 µM).

`COc1ccc(N2C(=O)CC(C)(C)CC2=O)cc1OC` and `CSc1cccc(-n2ccc(=O)c(C)c2C)c1` cannot be ordered by solubility kinetic: greater than 41.6 µg/mL for the first, greater than 36.8 µg/mL for the second.

Compared with `CCN(CC)CCNC(=O)c1cc2ccccc2nc1Cl`, `N#Cc1cc2ccccc2nc1SCC(=O)NC1CC1` is 9.8-fold lower in solubility kinetic: 31.2 µg/mL (≈ 102 µM) for the first, 3.2 µg/mL (≈ 11.3 µM) for the second.

First: Cn1c(NC(=O)c2ccc(F)cc2)c(-c2ccccn2)c(=O)c2ccccc21
Second: Cn1c(C2=C(O)CN(c3ccccc3)C2=N)nc2ccccc21
The solubility kinetic of the first is 7.2-fold lower: 6.2 µg/mL (≈ 16.6 µM) for the first, 44.5 µg/mL (≈ 146 µM) for the second.

Going from `COC(=O)c1c(NC(=O)C2CC2)sc(C(=O)Nc2ccccc2)c1C` to `CCOC(=O)c1sc(NC(=O)c2ccccc2OCC)nc1C`, the solubility kinetic falls from 1.7 µg/mL (≈ 4.74 µM) to less than 0.4 µg/mL.

First: Cc1cc(C)n2nc(-c3ccco3)nc2n1
Second: Cc1ccc(OCCN2C(=O)C(=O)c3cc(C)ccc32)cc1
The solubility kinetic of the first is higher: greater than 32.1 µg/mL for the first, 4.1 µg/mL (≈ 13.9 µM) for the second.

`CCOc1ccc(CNCCc2ccc3c(c2)OCO3)cc1` and `Cc1ccc(OCC(=O)NCCNC(=O)c2cccnc2)cc1C` cannot be ordered by solubility kinetic: greater than 44.9 µg/mL for the first, 46.7 µg/mL (≈ 143 µM) for the second.

`COC(=O)CNC(=O)c1cc(-c2ccncc2)nc2ccc(C)cc12` and `COc1ccccc1C(=O)NCCC(=O)NCC(c1ccccc1)N(C)C` (centres undefined) cannot be ordered by solubility kinetic: greater than 50.3 µg/mL for the first, greater than 55.4 µg/mL for the second.

First: N/C(COc1cc(Cl)cc(Cl)c1)=N\O
Second: O=c1c2ccc(Cl)cc2[nH]c(=S)n1-c1cccnc1
The solubility kinetic of the first is 3.2-fold higher: 34.3 µg/mL (≈ 146 µM) for the first, 10.8 µg/mL (≈ 37.3 µM) for the second.

First: O=C(O)c1ccc(NCc2cccs2)cc1
Second: N=C1SC(CC(=O)Nc2ccccc2[N+](=O)[O-])C(=O)N1c1ccccc1 (centres undefined)
The solubility kinetic of the first is higher: greater than 35 µg/mL for the first, 0.2 µg/mL (≈ 0.54 µM) for the second.

Going from `CCCCN(CC)Cc1c(C)[nH]c2c(ccc3ccccc32)c1=O` to `Cn1c(=O)c2ccccc2n(CC(=O)NCCC2=CCCCC2)c1=O`, the solubility kinetic falls from greater than 48.4 µg/mL to 14.6 µg/mL (≈ 42.8 µM).

Compared with `CC(C)C(=O)Nc1cc(C(F)(F)F)ccc1-n1ccnc1`, `Cc1noc(C)c1S(=O)(=O)Nc1ccccc1N1CCOCC1` is higher in solubility kinetic: 38.8 µg/mL (≈ 131 µM) for the first, greater than 50.6 µg/mL for the second.

First: O=C(CN1C(=O)NC2(CCCCC2)C1=O)Nc1ccc(N2CCCCC2)cc1
Second: O=C(O)C(=O)O.c1ccc(COc2cccc(CN3CCCCC3)c2)cc1
The solubility kinetic of the first is 4.2-fold lower: 10.9 µg/mL (≈ 28.3 µM) for the first, 46.2 µg/mL for the second.

`CC(C)N1CCN(Cc2cc3c(cc2Cl)OCO3)CC1CCO` (centres undefined) and `Cc1nc(N2CCCCC2)sc1C=O` cannot be ordered by solubility kinetic: 39.9 µg/mL (≈ 117 µM) for the first, greater than 31.5 µg/mL for the second.

Work on `C=CCN=C1CCCc2c1[nH]c1ccc(C)cc21` yielded a solubility kinetic of 10.3 µg/mL (≈ 43.2 µM).
